# Assay results published in US11197891B2, “Therapies with lanthionine C-like protein 2 ligands and cells prepared therewith” (Landos Biopharma, Inc., priority 2017, dated 2021).
# Entries after “also recorded” stand apart in the source; their conditions may differ.
# Key:
# CD4+ T cells = assay: Differentiation of CD4+ T cells into Tregs with metabolic modulators; format: cell-based, mice; conditions: BT-11 with PS-48 (5 μM), DASA-58 (10 μM) or thapsigargin (10 nM)
# Method: (§1) Spleens from WT and Lancl2−/− mice were excised and crushed to generate a single cell suspension. CD4+ T cell fraction was enriched by negative selection via magnetic sorting with the BD IMag system. Naïve CD4+ T cells were obtained by incubation with a biotinylated CD62L antibody followed by conjugation to streptavidin coated magnetic beads. Naïve cells were incubated for 48 hours within anti-CD3 coated tissue culture plates in complete IMDM media containing all-trans retinoic acid and purified TGF-β to stimulate differentiation into Tregs. […] Metabolic modulators, PS-48 (5 μM), DASA-58 (10 μM), and thapsigargin (10 nM), were added at 0 h. […] Six hours prior to assay, cells were stimulated with PMA and ionomycin. Cells were collected from plate for downstream analysis by flow cytometry, gene expression and metabolic assay.
# LANCL2 = biological target: T1, LANCL2 (Homo sapiens, UniProt Q9NS86); assay: Surface plasmon resonance (SPR) binding to LANCL2; conditions: Tables 1A and 1B; read-out: SPR Affinity to LANCL2 (Kd)
# T1 sequence (Q9NS86 1-450): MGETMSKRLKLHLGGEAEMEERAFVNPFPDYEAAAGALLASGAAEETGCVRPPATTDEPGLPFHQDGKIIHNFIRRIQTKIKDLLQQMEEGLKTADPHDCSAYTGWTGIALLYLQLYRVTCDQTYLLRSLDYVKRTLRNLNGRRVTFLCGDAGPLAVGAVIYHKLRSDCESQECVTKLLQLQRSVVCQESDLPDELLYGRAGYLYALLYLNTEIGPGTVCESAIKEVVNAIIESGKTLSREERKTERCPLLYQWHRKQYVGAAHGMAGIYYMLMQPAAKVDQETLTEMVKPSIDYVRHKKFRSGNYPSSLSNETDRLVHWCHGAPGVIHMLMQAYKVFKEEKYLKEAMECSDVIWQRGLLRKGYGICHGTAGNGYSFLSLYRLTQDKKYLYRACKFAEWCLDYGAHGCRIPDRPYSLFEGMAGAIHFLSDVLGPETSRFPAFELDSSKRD
# [1] = tested on: Lancl2ΔT and Lancl2-expressing control mice challenged with DSS; assay: DSS model of colitis; format: in vivo
# [2] = tested on: CD4+ T cells co-cultured with in vitro differentiated Tregs; assay: Co-assay of CD4+ T cells and BT-11 pre-treated Treg cells; format: cell-based, mice
# Method: as §1
# After two days cells were collected and plated with freshly collected CFSE-labeled CD4+ T cells.
# [3] = tested on: naïve CD4+ T cells isolated from human PBMCs; assay: Human naïve CD4+ T cells differentiated into Tregs; format: cell-based; conditions: differentiated into Tregs in presence of BT-11, dose dependent
# Method: (§2) Fresh de-identified whole blood was obtained from commercial vendor. Blood was diluted and purified for PBMC fraction by LeukoSep tube. Remaining red blood cells were lysed by hypotonic lysis. […] For siRNA experiments, cells were first incubated with an OriGene 3-mer LANCL2 siRNA or scrambled control suspended within ViromerGreen transfection reagent for 6 hours. […] Cells were stimulated with PMA and ionomycin six hours prior to assay.
# (§3) Whole blood was obtained from Crohn's disease patients, clinically categorized as mild to moderate disease.
# [4] = tested on: in vitro differentiated Tregs; assay: STAT5a and FOXO1 phosphorylation by Western blot in in vitro differentiated Tregs; format: cell-based, mice
# Description: Cells were also differentiated in the presence of inhibitors for PTEN (SF1670) or STATS (STAT5i).
# [5] = tested on: in vitro differentiated Tregs; assay: Gene expression of Treg stability genes in in vitro differentiated Tregs; format: cell-based, mice; conditions: WT Tregs
# Description: Total RNA from colon and cells was generated using the Qiagen RNeasy mini kit. cDNA was generated using the BioRad iScript cDNA synthesis kit. Standard curves were generated by serial dilution of purified product from a standard PCR reaction with Taq DNA polymerase followed by purification using the Qiagen MinElute PCR purification kit. Expression levels were obtained from quantitative real-time PCR with SybrGreen supermix on a BioRad CFX96 Thermal cycler followed by normalization to expression of β-actin as described previously [33].
# Spleens from WT and Lancl2−/− mice were excised and crushed to generate a single cell suspension. CD4+ T cell fraction was enriched by negative selection via magnetic sorting with the BD IMag system. Naïve CD4+ T cells were obtained by incubation with a biotinylated CD62L antibody followed by conjugation to streptavidin coated magnetic beads. Naïve cells were incubated for 48 hours within anti-CD3 coated tissue culture plates in complete IMDM media containing all-trans retinoic acid and purified TGF-β to stimulate differentiation into Tregs [18]. […] Metabolic modulators, PS-48 (5 μM), DASA-58 (10 μM), and thapsigargin (10 nM), were added at 0 h. […] Six hours prior to assay, cells were stimulated with PMA and ionomycin. Cells were collected from plate for downstream analysis by flow cytometry, gene expression and metabolic assay. […]
# Mdr1a−/− mice = assay: Mdr1a−/− model of colitis (IBD); format: in vivo
# Description: Mdr1a−/− model. Mdr1a−/− mice develop spontaneous colitis. […] Mice were weighed and scored weekly to monitor the development of colitis. At 10 weeks of age, Mdr1a−/− were sacrificed for the collection of tissue for downstream assay. DSS model. Lancl2^ΔT and Lancl2-expressing controls were given dextran sulfate sodium in drinking water for seven days. Following seven days, standard drinking water was returned. Mice were weighed and scored daily. Mice were euthanized for tissue collection at 7 and 10 days of experimental timeline. Adoptive transfer model. WT and Lancl2−/− donor spleens were crushed and enriched for CD4+ fraction by magnetic sorting. CD4+CD45RB^hiCD25− (Teff) and CD4+CD45RB^loCD25+ (Treg) cells were sorted by a FACSAria cell sorter. Based on indicated experimental group, Rag2−/− recipient mice received 4×10^5 Teff and 1×10^5 Treg cells from WT or Lancl2−/− origin by intraperitoneal injection. […] Mice were weighed and scored weekly until euthanasia at 8 weeks post-transfer.
# Colons and mesenteric lymph nodes (MLN) were collected into RPMI/FBS buffer containing collagenase (300U/mL) and DNase (50U/mL) for digestion. Following filtration of the resulting single cell suspensions, immune cells were purified by Percoll gradient. Cells were labeled with mixtures of extracellular (CD45, CD3, CD4, CD8, CD19, NK1.1, CD25, F4/80, CD11b, CX3CR1, CD64) and intracellular (Tbet, RORγT, FOXP3, IFNγ, IL17, IL10) antibodies in a sequential live staining in 96-well plates. Data was acquired using a FACS Celesta flow cytometer with FACSDiva software.
# Total RNA from colon and cells was generated using the Qiagen RNeasy mini kit. cDNA was generated using the BioRad iScript cDNA synthesis kit. Standard curves were generated by serial dilution of purified product from a standard PCR reaction with Taq DNA polymerase followed by purification using the Qiagen MinElute PCR purification kit. Expression levels were obtained from quantitative real-time PCR with SybrGreen supermix on a BioRad CFX96 Thermal cycler followed by normalization to expression of β-actin as described previously.
# H&E stained colonic sections were prepared from portions of colons collected into 10% buffered formalin and embedded in paraffin. Slides were examined by a board-certified veterinary pathologist via an Olympus microscope and images were collected with Image-Pro software. Samples were scored (0-4) for leukocytic infiltration, epithelial erosion and mucosal thickening.
# [6] = tested on: C. difficile strain VPI 10463 (ATCC 43255); assay: C. difficile infection animal model; format: in vivo, mice; conditions: 8 mg/kg/d after infection
# [7] = tested on: PBMCs from Crohn's disease donors; assay: PBMCs isolated from Crohn's disease donors, 24 hour culture; format: cell-based, human
# Method: as §2, §3
# Naïve CD4+ T cells = assay: Differentiation of naïve CD4+ T cells into Tregs with IL-2 or IL-12 (flow cytometry); format: cell-based, mice; conditions: media containing IL-2 or IL-12, inhibitor SF1670 or STAT5i
# Method: Naïve CD4+ T cells were isolated from the spleens of mice by magnetic sorting. The isolated cells were incubated in anti-CD3/anti-CD28 coated 96 well plates in Treg differentiation media. The Treg differentiation media was Iscove's Modified Dulbecco's Medium (IMDM) media (ThermoFisher Scientific) supplemented with fetal bovine serum, HEPES, penicillin/streptomycin, L-glutamine, and differentiation agents. The Treg differentiation agents were 10 nM all-trans-retinoic acid and 5 ng/mL TGF-β. Additional experiments were conducted comparing differentiation in the Treg differentiation media with and without the addition of 10 ng/mL IL-2 or IL-12. […] Prior to assay, cells were stimulated with PMA and ionomycin for 6 hours.
# Colonic lamina propria lymphocytes and cultured cells were plated in 96 well plates (6×10^5 cells/well) and processed for immunophenotyping by flow cytometry as previously described. Briefly, cells were incubated with fluorochrome conjugated antibodies to extracellular markers: CD45, CD4, CD3, CD25, CD8. Samples needing a secondary staining were incubated with secondary antibodies, or streptavidin-conjugated fluorochrome. The samples were then fixed and permeabilized. Cells were incubated with antibodies to intracellular markers: Tbet, IFNγ, IL10, FOXP3, IL17, RORγT. Data was acquired with a BD FACS Celesta flow cytometer and analyzed using FACS Diva software (BD Pharmingen). […]
# [8] = WT Treg pre-treated with BT-11, 24 h co-assay
smiles,measurement,setting,value
"O=C(c1cccc(-c2nc3ccccc3[nH]2)n1)N1CCN(C(=O)c2cccc(-c3nc4ccccc4[nH]3)n2)CC1 [BT-11, N,N-Bis(benzimidazolylpicolinoyl)piperazine]",Treg cell differentiation,CD4+ T cells,increased differentiation of Tregs
same,Kd,LANCL2,7.7 µM
same,Th1 and Th17 cells in colonic LP,[1]; Lancl2ΔT mice treated with BT-11,failed to induce characteristic reductions in Th1 and Th17 cells
same,efficacy in DSS model with loss of LANCL2 in CD4+ T cells,"[1]; Lancl2ΔT mice, seven-day DSS, oral BT-11",abrogated the efficacy of BT-11
same,proliferative index and TNFα/IFNγ expression,[2]; KO (Lancl2−/−) Treg pre-treated with BT-11,did not induce changes in either measure
same,expression of TNFα and IFNγ by cytometric bead array,[2]; [8],lowered
same,proliferative index of CD4+ T cells (CFSE),[2]; [8],lowered the proliferative index
same,retention of Treg (FOXP3+IL10+) phenotype,"[2]; WT Treg pre-treated with BT-11, after 24 h co-assay",greater retention of Treg (FOXP3+IL10+) phenotype
same,"stability-associated Treg markers (Lag3, Socs2, Irf7, P2rx7, Capn3, Ikzf2)",[3],upregulation of stability-associated Treg markers
same,STAT5a phosphorylation,[4]; base Treg differentiation media and with IL-2 or IL-12,phosphorylated in a greater ratio
same,FOXO1 phosphorylation,"[4]; base media and media containing IL-2, but not IL-12",similarly affected
same,expression of P2rx7,[5]; 0.625 μM BT-11,significantly upregulated (P<0.05)
same,"expression of Socs2, Capn3, Irf7 and Lag3","[5]; 48 hours of BT-11 treatment, significant at 0.625 μM",dose-dependent increase
same,"colonic leukocytic infiltration, epithelial erosion and mucosal thickening","Mdr1a−/− mice; 8 mg/kg oral daily, at 10 weeks of age","reduced colonic leukocytic infiltration, epithelial erosion and mucosal thickening"
same,disease activity (development of disease),"Mdr1a−/− mice; 8 mg/kg oral daily, six weeks from four weeks of age",prevented the development of disease throughout the six-week period; also recorded: decreases disease activity index
same,efficacy when given therapeutically,Mdr1a−/− mice; beginning after presentation of symptoms at 7 weeks of age,displays efficacy when given therapeutically
same,"percentages of IL-10-producing cellular subsets (CX3CR1+ macrophages, Treg cells)","Mdr1a−/− mice; colonic LP and MLN, 8 mg/kg oral daily",increased percentages of IL-10-producing cellular subsets
same,"inflammatory cytokines IFNγ, IL17A, IL6, TNFα, MCP1",Mdr1a−/− mice; colonic gene expression and cytometric bead array,Down-regulation of inflammatory cytokines
same,Th1 and Th17 cells in colonic lamina propria and mesenteric lymph nodes,"Mdr1a−/− mice; flow cytometry, 8 mg/kg oral daily",significant (P<0.05) reductions
same,whole colon Lancl2 expression,Mdr1a−/− mice; oral treatment,upregulated whole colon Lancl2
same,burden of C. difficile within the colon,[6],did not induce a decrease in the burden of C. difficile
same,colonic pathology including infiltration of leukocytes,[6],reduced colonic pathology
same,mortality,[6],complete protection against mortality
same,"neutrophils, Th1 and Th17 cells within the lamina propria",[6],"reduced neutrophils, Th1 and Th17 cells"
same,regulatory T cells within the lamina propria,[6],increase in regulatory T cells
same,disease activity scores,[6]; from day 2 onward,lower disease activity scores
same,percentage of IL-10+ and FOXP3+ cells,[7]; 24 hour culture with BT-11,higher percentage of IL-10+ and FOXP3+ cells
same,percentages of TNFα+ and IFNγ+ cells,[7]; 24 hour culture with BT-11,lower percentages of TNFα+and IFNγ+ cells
same,commitment to effector phenotypes (IFNγ+ cells),[7]; augmented (external) PEP concentration,prevented cells from an increased commitment to effector phenotypes
"CC(C)(C)C(=O)Nc1ccc2c(c1)C(=O)C(=O)c1ccccc1-2 [SF1670, reference compound]",effects of BT-11 on CD25+ FOXP3+ and CD25+ Tbet+ cells with inhibitors,Naïve CD4+ T cells,only prevented effects of BT-11 on CD25+ Tbet+ cells in IL-2 containing media
